US20220117266A1, “NICKEL CHELATION THERAPY” (priority 2019, published 2022)
Values joined by “and” are separate entries in the source; they are usually repeats but may differ in a detail not shown here. Equal entries are not always repeated. Where two headings read alike, the source gives them in different places.

Legend:
Aβ40 peptide [1] = target: T1, Aβ40 peptide (Homo sapiens, UniProt P05067); experiment: Thioflavin T (ThT)-based Aβ40 aggregation assay; format: biochemical; design: purchased rPeptides, Watkinsville, Ga., USA kit #A-1180-1; host or cells: E. coli; conditions: for increase of average Aβ40 aggregation rate compared to no supplemental metal control: pH 7.4; for Relative Aβ40 aggregation rate (% control): DMG 0 μM; for Aβ40 peptide aggregation under all pHs tested: pH 6.5, 7.5 or 8.5, 25 mM Aβ40, CuSO4 25 mM, ZnSO4 10 mM or DMG 100 mM (so in the source)
Protocol: Amyloid Beta aggregation. […] This kit contained human recombinant Aβ40 peptide (>97% pure, as determined by manufacturer's HPLC) with the following sequence […] (SEQ ID NO:1), as provided by the manufacturer. […] The aggregation of Aβ40, was shown by the increase in fluorescence (lex=440 nm/lem=485 nm) over time, was followed for 60 min or 120 min, with reading every three or five min, using a Synergy MX reader (Biotek, Winooski, Vt.). A ThT-only background control (no Aβ40 peptide) was included in triplicate in all experiments and subtracted from all readings. The aggregation rate, defined as the increase in fluorescence per min (RFU/min), was calculated by using the formula [A(440,485) at T40min)−A(440,485) at T20min]/20.
Target sequence in this assay (P05067 672-711): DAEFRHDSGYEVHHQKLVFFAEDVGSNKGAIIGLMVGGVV

Aβ40 peptide [2] = target: T1, Aβ40 peptide; experiment: Isothermal titration calorimetry; format: binding; design: purchased rPeptides, Watkinsville, Ga., USA kit #A-1180-1; host or cells: E. coli; DS (entropy): unit not given here; conditions: 20 μM Aβ40, 25° C.
Description: Nickel binding to human recombinant Aβ40 peptide is confirmed by isothermal titration calorimetry. Isothermal titration calorimetry (ITC) has been already used to analyze copper or zinc binding to various Aβ peptides, including Ab40 (Talmard et al. Biochemistry 46, 13658-13666 (2007); Sacco et al. JBIC Journal of Biological Inorganic Chemistry 17, 531-541 (2012); Hatcher et al. The journal of physical chemistry B 112, 8160-8164 (2008)). In the current study, we used ITC to determine whether nickel can bind the Aβ40 peptide. The peptide (same used in ThT-based aggregation assays) was present in the sample cell at a concentration of 20 μM. Twenty injections of NiSO4 (1 mM solution, 5 μM increments in sample cell) were performed every 5 min under constant stirring (350 rpm) at 25° C., and the heat release was measured (FIG. 9). The heat release profile indicates Ni binding to the peptide (FIG. 9, top Panel).
Isothermal Titration Calorimetry. […] Briefly, 1 mg of lyophilized Aβ40 peptide (#A-1157-2, rPeptides) was resuspended with 1% NH4OH to a concentration of 250 μM, sonicated for 15-20 sec, before being diluted to a final concentration of 20 μM Aβ40 using ddH2O and TBS 10×, pH 7.4 (working buffer: NH4OH 0.2%, TBS 1×, pH 7.4 (“NTBS”)). […] All samples were degassed for 15 min at 25° C. before use. Titration was initiated using a program for 20 injections (2.38 μL each, every 5 min) with continuous stirring (350 rpm) at constant temperature (25° C.). ITC data were analyzed using NanoAnalyze 1.2 software (TA Instruments). Data obtained with the control experiment (Aβ40 peptide in sample cell, buffer in syringe) were subtracted from each experiment to account for any injection-related heat change.
Target sequence in this assay (P05067 672-711): as above

C. jejuni 81-176 = experiment: Growth inhibition, liquid 96-well checkerboard (OD600, MIC, MBC); format: cell-based, Campylobacter jejuni; conditions: for OD600: DMG 0 mM, 24 h
Protocol: Growth inhibition assays: liquid (96-well) plates experiments. This type of experiment can only be conducted with C. jejuni since the gas requirement for C. concisus (H2-enriched microaerobic) is not compatible with the use of 96-well plates. C. jejuni cells were grown as described above, harvested, and resuspended in sterile NaCl (8 g/L) to an OD600 of 0.1, corresponding approximately to 5×10^8 to 1×10^9 cells/mL. […] Wells were serially (2-fold) diluted in each direction (horizontal and vertical) to introduce all combinations. Wells with no DMG or metal compounds served as (positive) growth controls, and wells with no bacteria served as background (negative growth) controls. A typical protocol and loading plan are described in Table 7. The starting inoculum was at OD600 of 0.05, which corresponds approximately to 2.5×10^8 cells/mL to 5×10^8 cells/mL. After 24 hours incubation under microaerobic conditions at 37° C., OD600 was recorded using a 96 well-plate reader (Microtek). […] Resulting growth (or lack of growth) was examined after overnight culturing; the lowest concentration that inhibits 99.9% of the original culture was defined as MBC. MIC and MBC were determined based on tests (plates) done in triplicate.

[3] = tested on: C. jejuni (strain 81-176, ATCC BAA-2151); experiment: Growth inhibition, solid plates (CFU); format: cell-based, Campylobacter jejuni; conditions: 0.5 mM metal salt in combination with 2 mM DMG
[4] = Acute oral LD50 (literature); format: in vivo, mice
[5] = cited from earlier work
[6] = tested on: C. jejuni (strain NCTC 11168); experiment: C. jejuni-chicken colonization experiment; format: in vivo, chickens; conditions: Experiment 1, ad libitum CuSO4 (0.2 mM), 9 days p.i.
Protocol: Since chickens are natural hosts for C. jejuni, and chicken meat is one of the main sources of campylobacteriosis in humans, it was important to test the efficacy of DMG alone or in combination with copper in this animal model. Two independent trials were conducted, as described in FIG. 22. In both trials, the treatment was administered through ad libitum drinks, starting two to three days before C. jejuni inoculation (with strain NCTC 11168), and going through the end of each experiment. […] Nine days after inoculation with C. jejuni, chickens were euthanized, and their ceca were isolated for bacterial count. […] The treatment was administered two days before inoculation with C. jejuni, and chicken ceca were harvested eight days after inoculation.

[7] = mouse, in vivo
Aβ40 peptide [8] = target: T1, Aβ40 peptide; design: yields Aβ peptides of various lengths (38, 40 or 42 amino acids); conditions: Talmard et al. 2007; read-out: Kd previously reported; cited from earlier work
Target sequence in this assay (P05067 672-711 limits assumed): as the sequence (P05067 672-711) above

[9] = 100 mM metal (so in the source)
[10] = experiment A, supplemental metal 10 μM
[11] = experiment B, supplemental metal 100 μM

| Structure (SMILES) | increase of average Aβ40 aggregation rate compared to no supplemental metal control (Aβ40 peptide [1]; 10 mM metal (so in the source)) | increase of average Aβ40 aggregation rate compared to no supplemental metal control (Aβ40 peptide [1]; [9]) | Relative Aβ40 aggregation rate (% control) (Aβ40 peptide [1]; [10]) | MBC (C. jejuni 81-176; metal with DMG 0 mM) | MIC (C. jejuni 81-176; metal with DMG 0 mM) | MBC (C. jejuni 81-176; metal with DMG 0.5 mM) | MIC (C. jejuni 81-176; metal with DMG 0.5 mM) | MBC (C. jejuni 81-176; metal with DMG 1 mM) | MIC (C. jejuni 81-176; metal with DMG 1 mM) | MBC (C. jejuni 81-176; metal with DMG 4 mM) | MIC (C. jejuni 81-176; metal with DMG 4 mM) | effect on C. jejuni growth [3] | other results |
| --- | --- | --- | --- | --- | --- | --- | --- | --- | --- | --- | --- | --- | --- |
| O=S(=O)([O-])[O-].[Ni+2] [Ni, NiSO4, reference compound] | 2.5 fold | 5.7 fold | 252 ± 8 % control | > 1020 µM | > 1020 µM | > 1020 µM | > 1020 µM | > 1020 µM | > 1020 µM | > 1020 µM | > 1020 µM | no noticeable effect | Ni(II)-induced Aβ40 aggregation at pH 6.5, compared to pH 7.5 (Aβ40 peptide [1]; NiSO4 25 mM (so in the source)): faster; Ni(II)-induced Aβ40 aggregation at pH 8.5 (Aβ40 peptide [1]; NiSO4 25 mM (so in the source)): absent; Relative Aβ40 aggregation rate (% control) (Aβ40 peptide [1]; [11]): 567 ± 61 % control; DH (enthalpy) (Aβ40 peptide [2]): -1.2 kcal/mol; DS (entropy) (Aβ40 peptide [2]): 86; apparent stoichiometry (Aβ40 peptide [2]): 0.7 mole Ni(II) per mole of Aβ40 p; Kd (Aβ40 peptide [2]; pH 7.4, read-out: apparent Kd): 4.2 µM and ~4.2 µM; MBC (C. jejuni 81-176; metal with DMG 2 mM): > 1020 µM; MIC (C. jejuni 81-176; metal with DMG 2 mM): > 1020 µM |
| O=S(=O)([O-])[O-].[Mn+2] [MnSO4] | – | – | – | – | – | – | – | – | – | – | – | no noticeable effect | – |
| CCN(CC)C(=S)SSC(=S)N(CC)CC [disulfiram] | – | – | – | – | – | – | – | – | – | – | – | – | LD50 amount per mouse [4]: approximately 20 μg; acute oral LD50 [5]: 1.013 mg/kg |
| O=S(=O)([O-])[O-].[Cu+2] [Cu, CuSO4, reference compound] | no significant effect | no significant effect | 103 ± 19 % control | > 1020 µM | > 1020 µM | > 1020 µM | 1020 µM | – | – | – | – | – | Relative Aβ40 aggregation rate (% control) (Aβ40 peptide [1]; experiment C, supplemental metal 100 μM): 77 ± 2 % control; Aβ40 peptide aggregation under all pHs tested (Aβ40 peptide [1]): negligible; OD600 (C. jejuni 81-176; CuSO4 2 uM): 0.29; OD600 (C. jejuni 81-176; CuSO4 4 uM): 0.23; OD600 (C. jejuni 81-176; CuSO4 8 uM): 0.31; OD600 (C. jejuni 81-176; CuSO4 16 uM): 0.38; OD600 (C. jejuni 81-176; CuSO4 32 uM): 0.26; OD600 (C. jejuni 81-176; CuSO4 64 uM): 0.27; OD600 (C. jejuni 81-176; CuSO4 128 uM): 0.23; OD600 (C. jejuni 81-176; CuSO4 256 uM): 0.38; OD600 (C. jejuni 81-176; CuSO4 512 uM): 0.28; OD600 (C. jejuni 81-176; CuSO4 1024 uM): 0.43; C. jejuni Average CFUs per g of cecum (x10^8) [6]: 5.95 x10^8 CFUs per g of cecum; Chickens Cj-free (n=) ([6]; total n=4): 0; Chickens Colonized (n=) ([6]; total n=4): 4 |
| [Cl-].[Cl-].[Co+2] [CO^2+, CoCl2, reference compound] | – | – | – | > 1020 µM | > 1020 µM | > 1020 µM | > 1020 µM | > 1020 µM | > 1020 µM | 512 µM | 256 µM | no noticeable effect | – |
| CC(=NO)C(C)=NO [D-1885, Dimethylglyoxime] | – | – | – | – | – | – | – | – | – | – | – | – | condition of animals given chelator alone [7]: appeared ill |
| O=S(=O)([O-])[O-].[Zn+2] [Zn, ZnSO4, reference compound] | 5 fold | 14 fold | 505 ± 29 % control | > 1024 µM | 512 µM | > 1024 µM | 512 µM | > 1024 µM | 512 µM | > 1024 µM | 512 µM | no noticeable effect | Relative Aβ40 aggregation rate (% control) (Aβ40 peptide [1]; [11]): 1423 ± 258 % control; Aβ40 peptide aggregation under all pHs tested (Aβ40 peptide [1]): fastest and sharpest increase in fluorescence; MBC (C. jejuni 81-176; metal with DMG 2 mM): > 1024 µM; MIC (C. jejuni 81-176; metal with DMG 2 mM): 512 µM; Kd (Aβ40 peptide [8]): 7 ± 3 µM |
